According to patent US20100240537A1, “Substituted 6-(alkylbenzylamino)purine derivatives for use as cytokinin receptor antagonists and preparations containing these derivatives” (priority 2007, published 2010):
Like-named read-outs stand apart in the source and are kept apart here.

Columns and labels:
[1] = test system: human diploid fibroblasts BJ; experiment: Calcein AM cytotoxicity assay, BJ; format: cell-based; conditions: 72 hours
Text: (§1) Absence of toxic effects against mammalian (especially human) cell lines in a wide concentration range is one of the requirements on compounds intended for use in agriculture. Because toxic compounds negatively influence metabolic processes in cells, many standard cytotoxicity assays are based on measurement of metabolisation rate of various artificial substrates. Resulting product is then quantified e.g. by means of spectrometry. The assays can be easily modified for use in 96-well plates. For evaluation of cytotoxic effect of the novel substituted 6-(alkylbenzylamino)purine derivatives of this invention, a microtiter assay based on quantification of metabolisation of Calcein AM was used. The assay is widely used in drug screening programs and in chemosensitivity testing. In live cells, Calcein AM is enzymatically hydrolysed and accumulation of resulting calcein is manifested by green fluorescence.
(§2) The cells were maintained in Nunc/Corning 80 cm^2 plastic tissue culture flasks and cultured in cell culture medium (DMEM with 5 g/l glucose, 2 mM glutamine, 100 U/ml penicillin, 100 μg/ml streptomycin, 10% fetal calf serum and sodium bicarbonate).
(§3) The cell suspensions were prepared and diluted according to the particular cell type and the expected target cell density (10^4 cells per well based on cell growth characteristics) and pippetted (80 μl) into 96-well plates. Inoculates were allowed a pre-incubation period of 24 hours at 37° C., 100% humidity and 5% CO2 for stabilisation. Tested compounds were added in total volume of 20 μl of water at time zero. Usually, test compound was evaluated at six 3-fold dilutions. In routine testing, the highest concentration tested was 100 μM, the eventual changes depended on physico-chemical characteristics of the respective compound. All drug concentrations were tested in triplicates. Incubations of cells with the test compounds lasted for 72 hours at 37° C., in 5% CO2 atmosphere and 100% humidity. At the end of incubation period Calcein AM (Molecular Probes) in PBS was added into final concentration of 1 μg/ml. After another 1 hour of incubation fluorescence (FD) was measured with the Labsystem FIA Reader Fluoroscan Ascent (UK). Growth inhibition (GI) was estimated using the following equitation: GI=(mean FDdrug exposed wells−mean FDblank)/(mean FDcontrol wells−mean FDblank)×100%.

[2] = test system: breast carcinoma cell line MCF-7; experiment: Calcein AM cytotoxicity assay, MCF-7; format: cell-based, human
Text: as §1, §2, §3

melanoma cell line G-361 = experiment: Calcein AM cytotoxicity assay, G-361; format: cell-based, human
Text: as §1, §2, §3

[3] = test system: erytroid leukemia cell line K-562; experiment: Calcein AM cytotoxicity assay, K-562; format: cell-based, human
Text: as §1, §2, §3

[4] = test system: Human diploid fibroblasts SNF25; experiment: MTT viability assay on human diploid fibroblasts; format: cell-based; conditions: SNF25 passage 19, 72 hours, read-out: IC50 (reduction in mitochondrial activity, MTT)
Experimental: MTT is a standard colorimetric assay for measurement of proliferation and survival of the cells. Yellow MTT is reduced into violet formazan in metabolically active cells. The amount of formazan is measured by spectrometry. Human diploid fibroblasts SNF25 (passage 19) were seeded in 96-well plate (5000 cells per well). After 6 hours, the cultivation medium (DMEM containing 5 g/l glucose, 2 mM glutamin, 100 U/ml penicillin, 100 μg/ml streptomycin and 10% fetal calf serum) was removed and fresh medium containing a test compound in concentration range of 0-100 μM was added. The concentration was adjusted in cases of compounds with limited solubility. Each concentration was tested in 5 replicates. MTT was added to the cells after 72 hours into final concentration of 0.5 mg/ml. Incubation time was 3 hours. Resulting MTT was disolved in DMSO and absorbance was measured. The cytotoxic effect was estimated as IC=(Awells with compounds/Acontrol wells)×100%.

[5] = test system: cytokinin receptors CRE1/AHK4 and AHK3; experiment: Binding assay with membranes of E. coli expressing cytokinin receptors, competition with 3HtZ; set-up: species or system Arabidopsis; conditions: negative control, 1000-fold higher concentration than compound 8
Experimental: Isolation of E. coli membranes and binding assays were carried out as previously described by Romanov et al. (Romanov et al. Analytical Biochemistry 347:129-134, 2005).

[6] = test system: osteosarcoma cell line HOS; experiment: Calcein AM cytotoxicity assay, HOS; format: cell-based, human; conditions: 72 hours
Text: as §1, §2, §3

AHK3 = target: T1, AHK3 (Arabidopsis thaliana, UniProt Q9C5U1); experiment: Activation of cytokinin receptor AHK3 in E. coli KMI001 (β-galactosidase reporter); format: cell-based; conditions: E. coli KMI001 pSTV28-AHK3, 28 h incubation; n.i. means without interaction; read-out: EC50 AHK3 (activation of cytokinin receptor)
T1 construct: expressed in transfected cells; host or cells: Escherichia coli KMI001, plasmid pSTV28-AHK3
T1 sequence (Q9C5U1 1-1036): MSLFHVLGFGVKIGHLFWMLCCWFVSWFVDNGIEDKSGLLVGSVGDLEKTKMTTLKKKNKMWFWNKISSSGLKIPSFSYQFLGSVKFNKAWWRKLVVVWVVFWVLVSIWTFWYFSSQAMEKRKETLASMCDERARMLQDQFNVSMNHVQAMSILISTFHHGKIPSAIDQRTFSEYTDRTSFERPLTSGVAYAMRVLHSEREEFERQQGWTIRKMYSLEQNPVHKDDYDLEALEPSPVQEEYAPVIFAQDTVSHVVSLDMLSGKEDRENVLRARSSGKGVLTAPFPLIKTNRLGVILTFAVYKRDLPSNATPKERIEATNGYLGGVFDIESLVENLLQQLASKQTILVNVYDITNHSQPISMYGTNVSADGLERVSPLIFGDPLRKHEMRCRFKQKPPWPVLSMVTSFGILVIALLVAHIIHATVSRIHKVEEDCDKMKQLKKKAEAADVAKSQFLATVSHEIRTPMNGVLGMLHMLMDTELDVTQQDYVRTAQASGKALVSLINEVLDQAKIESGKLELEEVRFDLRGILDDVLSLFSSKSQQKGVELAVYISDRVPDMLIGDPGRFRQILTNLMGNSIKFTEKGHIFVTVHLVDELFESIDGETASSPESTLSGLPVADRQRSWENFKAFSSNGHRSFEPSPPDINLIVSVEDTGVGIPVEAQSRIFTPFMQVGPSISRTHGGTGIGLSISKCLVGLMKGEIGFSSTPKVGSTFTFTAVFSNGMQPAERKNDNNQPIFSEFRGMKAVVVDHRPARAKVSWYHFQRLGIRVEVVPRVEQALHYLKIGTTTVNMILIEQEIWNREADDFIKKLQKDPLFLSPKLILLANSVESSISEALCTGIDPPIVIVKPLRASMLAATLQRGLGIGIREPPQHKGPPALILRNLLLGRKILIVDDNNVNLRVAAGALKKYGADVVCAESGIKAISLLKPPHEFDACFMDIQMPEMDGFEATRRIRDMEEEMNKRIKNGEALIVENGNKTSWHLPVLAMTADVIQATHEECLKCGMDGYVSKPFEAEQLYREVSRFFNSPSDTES
Experimental: (§4) Escherichia coli strains KMI001 harbouring the plasmid pIN-III-AHK4 or pSTV28-AHK3 were grown overnight at 25° C. in M9 media enriched with 0.1% casamino acids to OD600˜1. The preculture was diluted 1:600 in 1 ml M9 medium containing 0.1% casamino acids and 1 μl stock solution of either the tested compound (10^−7 M−5×10^−5 M) or solvent control (DMSO, ethanol, methanol) were added. The cultures were further grown at 25° C. in microtiter plate, 200 μl per well. […] The cultures were centrifuged and 50 μl aliquots of the supernatant were transferred to microtiter plate containing 2 μl 50 mM 4-methyl umbelliferyl galactoside which was subsequently incubated for 1 h at 37° C. The reaction was stopped by adding 100 μl 0.2 M Na2CO3. Fluorescence was measured using a Fluoroscan Ascent (Labsystems, Finland) at the excitation and emission wavelengths of 365 and 460 nm, respectively. The OD600 of remaining culture was determined and β-galactosidase activity was calculated as nmol 4-methylumbelliferone×OD600^−1×h^−1.
(§5) The EC50 value, the compound concentration activating the receptor to 50%, was calculated from the obtained dose response curves. The compound functioning as cytokinin antagonists should not activate cytokinin signalling pathway. The values shown in Table 2 are means of three replicates and the entire test was repeated at least twice.

CRE1/AHK4 = target: T2, CRE1/AHK4 (Arabidopsis thaliana, UniProt Q9C5U0); experiment: Activation of cytokinin receptor CRE1/AHK4 in E. coli KMI001 (β-galactosidase reporter); format: cell-based; conditions: E. coli KMI001 pIN-III-AHK4, 17 h incubation; n.i. means without interaction; read-out: EC50 CRE1/AHK4 (activation of cytokinin receptor)
T2 construct: expressed in transfected cells; host or cells: Escherichia coli KMI001, plasmid pIN-III-AHK4
T2 sequence (Q9C5U0 whole entry): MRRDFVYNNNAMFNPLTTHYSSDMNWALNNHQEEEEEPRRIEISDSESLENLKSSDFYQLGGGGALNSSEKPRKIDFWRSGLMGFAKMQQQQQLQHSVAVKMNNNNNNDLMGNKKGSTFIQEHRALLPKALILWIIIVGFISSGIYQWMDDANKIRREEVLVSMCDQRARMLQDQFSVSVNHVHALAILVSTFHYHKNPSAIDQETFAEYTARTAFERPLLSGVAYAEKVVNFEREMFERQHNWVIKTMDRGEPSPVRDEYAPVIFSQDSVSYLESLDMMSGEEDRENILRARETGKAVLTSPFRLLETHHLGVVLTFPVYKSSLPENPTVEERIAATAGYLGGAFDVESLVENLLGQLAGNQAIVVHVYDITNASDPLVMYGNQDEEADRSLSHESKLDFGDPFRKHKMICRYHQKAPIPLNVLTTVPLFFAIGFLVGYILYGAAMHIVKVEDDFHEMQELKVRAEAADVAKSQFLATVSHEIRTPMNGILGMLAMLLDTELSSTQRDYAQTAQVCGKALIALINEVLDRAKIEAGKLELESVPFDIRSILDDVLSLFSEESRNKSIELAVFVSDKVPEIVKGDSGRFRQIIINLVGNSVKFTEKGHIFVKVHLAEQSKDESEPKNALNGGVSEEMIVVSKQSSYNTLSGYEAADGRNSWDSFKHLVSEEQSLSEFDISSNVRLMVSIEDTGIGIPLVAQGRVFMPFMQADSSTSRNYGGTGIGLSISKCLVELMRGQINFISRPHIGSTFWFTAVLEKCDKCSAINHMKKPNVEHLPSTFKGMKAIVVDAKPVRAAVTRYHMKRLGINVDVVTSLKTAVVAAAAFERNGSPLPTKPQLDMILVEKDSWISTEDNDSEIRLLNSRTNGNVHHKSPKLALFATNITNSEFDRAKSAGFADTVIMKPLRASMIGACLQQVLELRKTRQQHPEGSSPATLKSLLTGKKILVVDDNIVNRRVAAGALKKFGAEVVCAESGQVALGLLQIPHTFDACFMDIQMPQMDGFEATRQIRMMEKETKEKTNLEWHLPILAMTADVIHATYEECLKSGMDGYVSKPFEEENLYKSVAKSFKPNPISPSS
Experimental: as §4, §5

Nc1ncnc2nc[nH]c12 [adenine]
GI50 ([1]; Homo sapiens, Fibroblast): > 100 µM | GI50 ([2]; Homo sapiens, MCF7, 72 hours): > 100 µM | GI50 (melanoma cell line G-361; Homo sapiens, G-361, 72 hours): > 100 µM | GI50 ([3]; Homo sapiens, K562, 72 hours): > 100 µM | IC50 ([4]; Homo sapiens, Fibroblast): > 100 µM | effect on binding of 3HtZ [5]: not effective at all | GI50 ([6]; Homo sapiens): > 100 µM

CC(C)=CCNc1ncnc2nc[nH]c12 [isopentenyladenine]
GI50 [1]: > 100 µM | GI50 ([2]; 72 hours, read-out: GI50 MCF7): > 100 µM | GI50 (melanoma cell line G-361; 72 hours): > 100 µM | GI50 ([3]; 72 hours): > 100 µM | IC50 [4]: > 100 µM | GI50 [6]: > 100 µM

c1coc(CNc2ncnc3[nH]cnc23)c1 [kinetin]
GI50 ([1]; Homo sapiens, Fibroblast): > 100 µM | GI50 ([2]; Homo sapiens, MCF7, 72 hours): > 100 µM | GI50 (melanoma cell line G-361; Homo sapiens, G-361, 72 hours): > 100 µM | GI50 ([3]; Homo sapiens, K562, 72 hours): > 100 µM | IC50 ([4]; Homo sapiens, Fibroblast): > 100 µM | GI50 ([6]; Homo sapiens): > 100 µM

Oc1cccc(CNc2ncnc3nc[nH]c23)c1 [meta-topolin]
GI50 [1]: > 100 µM | GI50 ([2]; 72 hours, read-out: GI50 MCF7): > 100 µM | GI50 (melanoma cell line G-361; 72 hours): > 100 µM | GI50 ([3]; 72 hours): > 100 µM | IC50 [4]: > 100 µM | GI50 [6]: > 100 µM

Oc1ccccc1CNc1ncnc2nc[nH]c12 [ortho-topolin]
GI50 [1]: > 100 µM | GI50 ([2]; 72 hours, read-out: GI50 MCF7): > 100 µM | GI50 (melanoma cell line G-361; 72 hours): > 100 µM | GI50 ([3]; 72 hours): > 100 µM | IC50 [4]: > 100 µM | GI50 [6]: > 100 µM

C/C(=C\CNc1ncnc2nc[nH]c12)CO [trans-zeatin]
GI50 [1]: > 100 µM | GI50 ([2]; 72 hours, read-out: GI50 MCF7): > 100 µM | GI50 (melanoma cell line G-361; 72 hours): > 100 µM | GI50 ([3]; 72 hours): > 100 µM | EC50 (AHK3): 2.1 µM | EC50 (CRE1/AHK4): 0.9 µM | IC50 [4]: > 100 µM | GI50 [6]: > 100 µM
